Results taken from patent publication US7037928B2, “Compositions of N-(methylethylaminocarbonyl)-4-(-3-methylphenylamino)-3-pyridylsulfonamide and cyclic oligosaccharides” (PLIVA, farmaceutska industrija, dionicko drustvo, priority 2000, dated 2006).

Assay: Release of torasemide (active substance) in water, USP 24
Assay type: physicochemical
Conditions: 37° C., 50 rpm, 1000 ml
Experimental: The physical mixture of the modification I of torasemide and β-cyclodextrin prepared according to the Example 1 of the present invention was subjected to testing the release of the active substance in water at the temperature of 37° C.
The inclusion complex of the modification I of torasemide and β-cyclodextrin to the Example 3 of the present invention was subjected to testing the release of the active substance in water at the temperature of 37° C.

Released torasemide (%) (time 0 min): 0%
Released torasemide (%) (time 15 min): 0.7%
Released torasemide (%) (time 30 min): 20.3%
Released torasemide (%) (time 45 min): 38.5%
Released torasemide (%) (time 60 min): 51.8%
Released torasemide (%) (time 90 min): 68.5%
Released torasemide (%) (time 120 min): 78.7%
Compound: Cc1cccc(Nc2ccncc2S(=O)(=O)NC(=O)NC(C)C)c1 [Modification I of torasemide, N-(1-methylethylaminocarbonyl)-4-(3-methylphenylamino)-3-pyridylsulfonamide]
